In patent US20180369186A1, “METHOD FOR MODULATING AUTOPHAGY AND APPLICATIONS THEREOF” (JAWAHARLAL NEHRU CENTRE FOR ADVANCED SCIENTIFIC RESEARCH, priority 2015, published 2018):

Key:
EGFP-α-synuclein = EGFP-α-synuclein degradation assay in SH-SY5Y cells; assay type: cell-based, human
Experimental: For EGFP-α-synuclein degradation assay, equal numbers of sub-confluent SH-SY5Y cells are seeded in 6 well dishes and allowed to attach for 24 h. Cells are transfected with EGFP-α-synuclein plasmid using Lipofectamine 2000 (Life technologies) and allowed to express for 24 h.
After treatments, cells are collected in Laemmli buffer to perform LC3 processing assay, P70S6K, GSK3β and 4E-BP1 immunoblotting. To validate EGFP-α-synuclein degradation by 6-Bio, treated cells are scraped and collected in growth medium. After washing with phosphate buffer, pellets are lysed in Laemmli buffer and boiled for 10 min.
Samples are electrophoresed on SDS-PAGE (8-15%) and then transferred onto PVDF (Bio-Rad) membrane using Transblot turbo (Bio-Rad). Transferred blots are stained with Ponceau S, probed with appropriate primary antibodies overnight and subsequently horseradish peroxidase conjugated secondary antibody. Signals are developed using enhanced chemiluminescence substrate (Clarity, Bio-Rad), imaged using a gel documentation system (G-Box, Syngene) and bands are quantified using image software (NIH). (FIGS. 4F and 5A)

[1] = Open field test in MPTP mice; assay type: in vivo; conditions: 5 mg/kg
Experimental: All the behavioural experiments are done on 3-4 month old, male C57/B16 mice. Experimenters are blind to the drug injected animals. Experimenters handle mice used for behavioral experiments for 3 consecutive days prior to the training paradigm. Behavioral experiments are designed in an order of low to high stress activity for mice. Therefore, Open Field Test is conducted in forenoon while rotarod is performed in the afternoon.
Mice were habituated to the behaviour room for 15 minutes every day before start of experiments. The light intensity is maintained at 100 lux throughout the experiment. Mice are weighed every day before training or test to ensure their good health. Mice are randomly allocated into three treatment cohorts: placebo control, MPTP and 6-Bio. Data is plotted using GraphPad prism 5 software.
Open field arena (50 cm×50 cm×45 cm) is custom-made (JNCASR) using plywood and the internal surface was coated with white polish. Mice are trained in open field for 2 consecutive days prior to drug injection. […] The activity is video recorded (SONY® color video camera, Model no. SSC-G118) using a software (SMART v3.0.04 from Panlah, Harvard Apparatus, USA). […] Distance travelled is analyzed offline by an experimenter who was not involved in performing the experiment.

Atg8 and Atg5 = experiment: Co-localization of GFP-Atg8 and Atg5-RedStar in yeast; assay type: cell-based, S. cerevisiae
p62/SQSTM1 = experiment: p62 aggregate immunofluorescence in MEFs; assay type: cell-based, mouse; conditions: 5 μM, 24 h and 48 h
Experimental: Immunofluorescence analysis in MEFs is carried out by fixing the cells with 4% methanol free paraformaldehyde for 15 minutes, permeabilised with 0.5% TritonX-100 in PBS for 10 minutes, and then blocking with 5% FES in PBS for 30 minutes at room temperature, along with PBS washes in between every steps. Anti-p62 antibody (Progen Biotechnik, GP62-C) is used at 1:250 dilution in […] in PBS and incubated overnight at 4° C. Cells are then washed and incubated with goat anti-guinea pig Alexa 594 (ThermoFisher Scientific, A-15 11076) secondary antibody at 1:1000 dilution for 1 hour at room temperature. Cells are washed, counterstained with DAPI (ThermoFisher Scientific, D1306) in PBS for 5 minutes, washed again and then mounted using Prolong diamond anti-fade reagent (ThermoFisher Scientific, P36970). Slides are imaged using a Zeiss LSM 510 Meta Confocal Microscope using 100× objective. Analysis is performed by assessing for the percentage of cells displaying an accumulation of endogenous p62-positive aggregates.
Analysis of p62 aggregates is done as described previously. […] The percentage of cells with increased p62+ aggregates is quantified by assessing 200 cells per condition from independent experiments, in which a cell with an accumulation of p62+ aggregates was given a score of 1 whereas a cell having basal (low) levels of p62+ aggregates was given a score of 0.

aminopeptidase = experiment: Protease protection assay with aminopeptidase; assay type: cell-based, S. cerevisiae; conditions: starvation
Experimental: To elucidate the step of action of Bay11, a protease protection assay is performed using aminopeptidase as a marker, which is also a substrate for starvation-induced autophagy. Untreated cells in presence of proteinase K show both the precursor as well as the matured form due to the autophagosome-sequestered membrane-protected cargo and the cytosolic free form, respectively (FIGS. 22D and 22E). […] Combined treatment with Proteinase K and triton X-100 results in conversion of all the precursor form to the matured form in both treated and untreated groups.

EGFR = EGFR trafficking (endocytosis-mediated EGFR degradation); assay type: cell-based, human; conditions: HeLa; 100 ng/ml EGF; 0-3 hours
Experimental: HeLa cells are plated on 6 well plates and allowed to attach on the surface. The cells are washed with PBS and then starved in DMEM (serum free media) for 3 hours. Pre-treatment with compounds is carried out for 1 hour, following which they are pulsed with 100 ng/ml of EGF and samples are collected at 0, 1, 2 and 3 hours.

HeLa and SH-SY5Y cells = experiment: Cell viability of HeLa and SH-SY5Y after 72 h (CellTitre Glo); assay type: cell-based, human; conditions: various concentrations
Experimental: In another embodiment of the present disclosure, FIG. 47 illustration non-toxicity of XCT 790 to cells (Hela and SHSY5Y) and scheme for α-synculein toxicity assay. Cell viability of cell lines like HeLa (a) and SH-SY5Y (b) after 72 h of XCT 790 treatments for various indicated concentrations. Cell viability was assayed using CellTitre Glo (Promega) kit.

[2] = test system: SH-SY5Y cells (autophagosomes and autolysosomes); experiment: Tandem RFP-EGFP-LC3 assay in SH-SY5Y cells; assay type: cell-based, human; conditions: 2 h
Experimental: Sub-confluent HeLa and/or SH-SY5Y cells are seeded into 60 mm cell culture dishes, then transfected with ptf LC3 construct and/or siRNA and allowed to express for 48 h. Cells are trypsinized, seeded again on poly-D-lysine coated cover slips in a 12 or 24 well plates and allowed to attach. After appropriate treatments, the coverslips containing cells are processed for imaging. For immunofluorescent antibody staining, the cover slips are incubated in primary antibody at 4° C. for overnight followed by secondary antibody incubation at room temperature.
For imaging the mammalian cells, after appropriate treatments, coverslips containing cells are fixed using 4% paraformaldehyde (PFA) (Sigma) and then permeabilized using Triton X-100 (0.2%, HiMedia). On slide, coverslips are mounted using antifade, Vectashield mounting medium (Vector laboratories). For antibody staining, coverslips are blocked using 5% BSA for 1 h at room temperature, then incubated with primary antibody at 4° C., overnight and then subsequently probed with corresponding fluorescent dye conjugated secondary antibody.

O=C1Nc2cc(Br)ccc2/C1=C1/Nc2ccccc2/C1=N\O [6-Bio, (2′Z,3′E)-6-Bromoindirubin-3′-oxime]
reduction of EGFP-α-synuclein levels (EGFP-α-synuclein; 5 μM, 24 h, versus untreated): ~2 fold
EGFP-α-synuclein levels on co-treatment with 3-MA (EGFP-α-synuclein; with 3-methyl adenine (5 mM)): does not change
distance travelled, Co versus MPTP ([1]; MPTP+Co, day 13): increased dramatically
distance travelled, Post versus MPTP ([1]; administered after 48 h MPTP): not protected

Cc1ccc(S(=O)(=O)/C=C/C#N)cc1 [Bay11, 3-[(4-methylphenyl)sulfonyl]-(2E)-propenenitrile]
Atg5 punctate structures (Atg8 and Atg5; vs single puncta in untreated cells): multiple puncta
co-localization between Atg8 and Atg5 dots (Atg8 and Atg5; vs untreated cells): significantly more co-localization
endogenous p62 aggregates (p62/SQSTM1): significant accumulation of endogenous p62 aggregates
form of aminopeptidase upon proteinase K treatment (aminopeptidase): only the mature form of aminopeptidase
degradation of EGFR over time upon EGF treatment (EGFR): no difference in the degradation of EGFR

COc1cc(C=C(C#N)C(=O)Nc2nnc(C(F)(F)F)s2)ccc1OCc1ccc(C(F)(F)F)cc1C(F)(F)F [XCT 790, 3-[4-(2,4-Bis-trifluoromethylbenzyloxy)-3-methoxyphenyl]-2-cyano-N-(5-trifluoromethyl-1,3,4-thiadiazol-2-yl)acrylamide]
toxicity to cells (HeLa and SH-SY5Y cells): non-toxicity
autolysosomes, fold vs control [2]: ~4 fold
autophagosomes, fold vs control [2]: ~2 fold
